The values below come from ChEMBL document CHEMBL1147633, “Structure-activity relationships of a novel class of endothelin receptor selective antagonists; 6-carboxy-2-isopropylamino-5,7-diarylcyclopenteno[1,2-b]pyridines” (Bioorg Med Chem Lett, 2004).

Experiment [1] concerns the target T1, Endothelin receptor type B (Homo sapiens, UniProt P24530).
T1 sequence (P24530 whole entry): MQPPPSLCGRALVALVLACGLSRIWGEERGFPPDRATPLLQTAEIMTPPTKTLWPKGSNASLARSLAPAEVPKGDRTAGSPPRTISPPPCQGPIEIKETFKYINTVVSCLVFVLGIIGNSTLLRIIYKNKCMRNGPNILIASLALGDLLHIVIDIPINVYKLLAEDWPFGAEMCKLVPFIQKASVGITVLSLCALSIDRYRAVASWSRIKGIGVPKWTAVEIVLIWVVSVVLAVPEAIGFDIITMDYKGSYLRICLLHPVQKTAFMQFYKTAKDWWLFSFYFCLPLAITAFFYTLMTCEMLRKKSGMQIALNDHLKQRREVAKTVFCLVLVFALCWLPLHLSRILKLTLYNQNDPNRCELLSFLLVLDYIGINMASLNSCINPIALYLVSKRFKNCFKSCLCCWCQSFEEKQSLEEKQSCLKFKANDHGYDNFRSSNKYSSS
Nature of the experiment: Inhibitory activity against [125I]ET1 binding to human endothelin B receptor.

The target in experiment [2] is T2, Endothelin-1 receptor (Homo sapiens, UniProt P25101).
T2 sequence (P25101 whole entry): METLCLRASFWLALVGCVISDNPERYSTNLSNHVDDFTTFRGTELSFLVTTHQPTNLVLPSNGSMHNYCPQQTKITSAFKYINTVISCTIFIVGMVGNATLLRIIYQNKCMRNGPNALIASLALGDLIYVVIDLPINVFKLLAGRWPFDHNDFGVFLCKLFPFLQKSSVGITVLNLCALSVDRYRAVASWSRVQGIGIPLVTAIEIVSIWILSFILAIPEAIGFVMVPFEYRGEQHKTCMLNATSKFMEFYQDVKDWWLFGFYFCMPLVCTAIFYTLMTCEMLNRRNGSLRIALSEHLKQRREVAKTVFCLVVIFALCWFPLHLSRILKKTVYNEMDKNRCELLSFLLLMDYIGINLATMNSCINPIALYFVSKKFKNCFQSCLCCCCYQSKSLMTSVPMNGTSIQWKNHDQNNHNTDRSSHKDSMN
Briefly: Inhibitory activity against [125I]ET1 binding to human endothelin A receptor.

The subject of experiment [3] is Mus musculus. Nature of the experiment: In vivo efficacy of compound was determined in mouse after intravenous administration. Format: functional.
The subject of experiment [4] is Rattus norvegicus. Nature of the experiment: Plasma levels of compound was evaluated in rats after 4 hr of oral administration at 10 mg/kg. Format: functional, organism-based. The arrangement: dose 10 mg/kg.
Experiment [5] concerns Rattus norvegicus. Nature of the experiment: Plasma levels of compound was evaluated in rats after 8 hr of oral administration at 10 mg/kg. Details: dose 10 mg/kg. It is filed as functional, organism-based.
The subject of experiment [6] is Rattus norvegicus. Briefly: Plasma levels of compound was evaluated in rats after 1 hr of oral administration at 10 mg/kg. Format: functional, organism-based. Details: dose 10 mg/kg.
Experiment [7] concerns the target Endothelin receptor, ET-A/ET-B (Homo sapiens) (UniProt P24530+P25101). Briefly: Selectivity ratio of inhibitory activity towards endothelin receptor A to endothelin receptor B (ETB/ETA). It is filed as protein assay.
For experiment [8], the species on record is Oryctolagus cuniculus. Nature of the experiment: Antagonistic activity towards endothelin A receptor was evaluated using the rabbit iliac artery in presence of 3% human serum albumin. It is filed as functional.

For orientation: IC50 means the point on the concentration scale where inhibition reaches its midpoint. Low values mean greater potency, high ones weaker potency. As to `COc1ccc([C@@H]2c3nc(NC(C)C)ccc3[C@H](c3ccc4c(c3)OCO4)[C@H]2C(=O)O)c(CC(C)(C)O)c1`, the IC50 in experiment [1] is 14 nM; in experiment [2], 0.014 nM. Moreover, in experiment [3], the AD50 was 0.042 MPK. Moreover, the results for the Plasma level in experiment [4], in experiment [5] and in experiment [6] were 48 nM, 110 nM and 460 nM, respectively. For the same compound, the Selectivity ratio in experiment [7] stood at 1000.

In the case of `COc1ccc([C@@H]2c3nc(NC(C)C)ccc3[C@H](c3ccc4c(c3)OCO4)[C@H]2C(=O)O)c(OC(C)CO)c1` (stereo in doubt; form 2) [listing 1 of 2 here], the Plasma level in experiment [4] was determined as 20 nM; in experiment [5], 69 nM; in experiment [6] it was 440 nM.

With `COc1ccc([C@@H]2c3nc(NC(C)C)ccc3[C@H](c3ccc4c(c3)OCO4)[C@H]2C(=O)O)c(CC(C)C(=O)N(C)C)c1` (stereo in doubt) [listing 1 of 2 here], the IC50 in experiment [1] was found to be 43 nM; in experiment [2] it was 0.024 nM. Also, in experiment [3], the AD50 is given as 0.017 MPK.

Take `COCC(C)Cc1cc(OC)ccc1[C@@H]1c2nc(NC(C)C)ccc2[C@H](c2ccc3c(c2)OCO3)[C@H]1C(=O)O` (stereo in doubt; form 2) [listing 1 of 2 here]: the Plasma level in experiment [4] is 130 nM; in experiment [5] it was 120 nM; in experiment [6], 810 nM. In addition, in experiment [7], the Selectivity ratio turned out to be 2300.

Turning to `COc1ccc([C@@H]2c3nc(NC(C)C)ccc3[C@H](c3ccc4c(c3)OCO4)[C@H]2C(=O)O)c(OC(C)CO)c1` (stereo in doubt; form 1) [listing 1 of 2 here], the figures for the Plasma level in experiment [4], in experiment [5] and in experiment [6] were 47 nM, 62 nM and 160 nM, respectively. Further, the Selectivity ratio in experiment [7] is 1700.

`COc1ccc([C@@H]2c3nc(NC(C)C)ccc3[C@H](c3ccc4c(c3)OCO4)[C@H]2C(=O)O)c(OC(C)CO)c1` (stereo in doubt; form 1) [listing 2 of 2 here]: the IC50 turned out to be 61 nM in experiment [1] and 0.036 nM in experiment [2]. In experiment [3], this compound displayed an AD50 of 0.046 MPK. For the same compound, in experiment [8], the PKB was 8.

In the case of `COc1ccc([C@@H]2c3nc(NC(C)C)ccc3[C@H](c3ccc4c(c3)OCO4)[C@H]2C(=O)O)c(CC(C)C(=O)N(C)C)c1` (stereo in doubt) [listing 2 of 2 here], the Plasma level in experiment [4] stood at 7 nM; in experiment [5], 10 nM; in experiment [6], 65 nM. Further, the Selectivity ratio in experiment [7] is 1800.

As for `COc1ccc([C@@H]2c3nc(NC(C)C)ccc3[C@H](c3ccc4c(c3)OCO4)[C@H]2C(=O)O)c(CCCO)c1`, the IC50 came to 20 nM in experiment [1] and 0.022 nM in experiment [2]. Besides, the Selectivity ratio in experiment [7] was found to be 910.

As to `COc1ccc([C@@H]2c3nc(NC(C)C)ccc3[C@H](c3ccc4c(c3)OCO4)[C@H]2C(=O)O)c(OCC(C)C)c1`, the IC50 in experiment [1] stood at 420 nM; in experiment [2], 0.86 nM. For the same compound, in experiment [7], the Selectivity ratio turned out to be 490.

In the case of `COc1ccc([C@@H]2c3nc(NC(C)C)ccc3[C@H](c3ccc4c(c3)OCO4)[C@H]2C(=O)O)c(OCc2ccccc2)c1`, the results for the IC50 in experiment [1] and in experiment [2] were 480 nM and 0.8 nM, respectively. In experiment [7], the Selectivity ratio was 600.

Take `COCC(C)Cc1cc(OC)ccc1[C@@H]1c2nc(NC(C)C)ccc2[C@H](c2ccc3c(c2)OCO3)[C@H]1C(=O)O` (stereo in doubt; form 2) [listing 2 of 2 here]: the IC50 in experiment [1] stood at 25 nM; in experiment [2] it was 0.011 nM. This compound also registered an AD50 in experiment [3] of 0.042 MPK.

Turning to `COc1ccc([C@@H]2c3nc(NC(C)C)ccc3[C@H](c3ccc4c(c3)OCO4)[C@H]2C(=O)O)c(OC(C)CO)c1` (stereo in doubt; form 2) [listing 2 of 2 here], the IC50 in experiment [1] was determined as 78 nM; in experiment [2], 0.057 nM. Also, the PKB in experiment [8] was determined as 7.46.

Consider `COc1ccc([C@@H]2c3nc(NC(C)C)ccc3[C@H](c3ccc4c(c3)OCO4)[C@H]2C(=O)O)c(OC(C)C)c1`, for which the IC50 in experiment [1] is 88 nM; in experiment [2], 0.11 nM. Moreover, the Selectivity ratio in experiment [7] worked out at 800.
